pKd: −log10 of the molar value. Active and inactive are the calls of the source. Rule as the data show it, for most assays here: actives have a measured Kd and inactives only a lower limit. Where only a bound is given, the exact number is not on record here.

This passage reports Kd results from ChEMBL document CHEMBL3991601, “The target landscape of clinical kinase drugs” (Science, 2017).

For test [1], the target named is T1, Mitogen-activated protein kinase kinase kinase 3 (Homo sapiens, UniProt Q99759).
T1 sequence (Q99759 whole entry): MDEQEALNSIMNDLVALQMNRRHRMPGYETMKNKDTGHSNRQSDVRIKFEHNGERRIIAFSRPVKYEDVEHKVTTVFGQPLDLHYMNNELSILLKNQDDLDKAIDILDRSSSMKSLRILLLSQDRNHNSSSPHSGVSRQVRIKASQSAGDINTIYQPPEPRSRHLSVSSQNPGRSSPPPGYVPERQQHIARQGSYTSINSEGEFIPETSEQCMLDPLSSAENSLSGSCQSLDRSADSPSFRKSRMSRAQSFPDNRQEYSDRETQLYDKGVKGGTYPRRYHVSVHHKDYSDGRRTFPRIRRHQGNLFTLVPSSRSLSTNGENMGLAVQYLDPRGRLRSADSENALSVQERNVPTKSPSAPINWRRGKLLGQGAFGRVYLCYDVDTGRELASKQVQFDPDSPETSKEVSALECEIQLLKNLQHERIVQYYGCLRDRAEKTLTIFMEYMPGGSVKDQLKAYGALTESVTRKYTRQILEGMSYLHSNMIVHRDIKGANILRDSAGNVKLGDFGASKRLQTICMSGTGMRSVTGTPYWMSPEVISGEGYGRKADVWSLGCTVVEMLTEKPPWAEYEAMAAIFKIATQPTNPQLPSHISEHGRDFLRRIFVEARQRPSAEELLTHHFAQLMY

The target in test [2] is T2, Mitogen-activated protein kinase kinase kinase kinase 3 (Homo sapiens, UniProt Q8IVH8).
T2 sequence (Q8IVH8 whole entry): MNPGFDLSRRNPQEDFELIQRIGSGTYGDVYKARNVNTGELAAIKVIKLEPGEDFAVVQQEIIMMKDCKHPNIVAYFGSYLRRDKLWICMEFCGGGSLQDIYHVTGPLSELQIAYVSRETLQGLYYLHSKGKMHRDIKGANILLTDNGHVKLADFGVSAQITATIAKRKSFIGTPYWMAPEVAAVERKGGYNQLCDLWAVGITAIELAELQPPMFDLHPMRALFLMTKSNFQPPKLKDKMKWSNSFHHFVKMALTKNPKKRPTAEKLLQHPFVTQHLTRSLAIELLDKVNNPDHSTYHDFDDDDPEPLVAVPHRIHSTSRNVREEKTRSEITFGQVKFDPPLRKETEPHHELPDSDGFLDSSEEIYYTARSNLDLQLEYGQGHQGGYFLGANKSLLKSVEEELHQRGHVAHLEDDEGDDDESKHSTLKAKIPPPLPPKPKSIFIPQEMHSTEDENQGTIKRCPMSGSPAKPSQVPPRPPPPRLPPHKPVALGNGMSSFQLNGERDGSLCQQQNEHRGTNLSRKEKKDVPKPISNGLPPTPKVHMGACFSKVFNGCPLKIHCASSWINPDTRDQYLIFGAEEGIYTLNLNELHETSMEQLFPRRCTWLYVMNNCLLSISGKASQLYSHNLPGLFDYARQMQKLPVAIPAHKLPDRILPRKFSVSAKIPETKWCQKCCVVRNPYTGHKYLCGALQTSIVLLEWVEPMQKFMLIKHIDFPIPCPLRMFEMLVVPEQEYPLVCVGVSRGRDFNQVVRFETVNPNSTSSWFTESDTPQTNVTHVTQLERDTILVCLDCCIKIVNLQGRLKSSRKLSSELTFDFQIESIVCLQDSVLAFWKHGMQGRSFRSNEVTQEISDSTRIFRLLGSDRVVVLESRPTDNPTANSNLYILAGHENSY

Test [3] deals with Receptor-interacting serine/threonine-protein kinase 3 (Homo sapiens, UniProt Q9Y572).
Chain of Receptor-interacting serine/threonine-protein kinase 3 (Q9Y572 whole entry): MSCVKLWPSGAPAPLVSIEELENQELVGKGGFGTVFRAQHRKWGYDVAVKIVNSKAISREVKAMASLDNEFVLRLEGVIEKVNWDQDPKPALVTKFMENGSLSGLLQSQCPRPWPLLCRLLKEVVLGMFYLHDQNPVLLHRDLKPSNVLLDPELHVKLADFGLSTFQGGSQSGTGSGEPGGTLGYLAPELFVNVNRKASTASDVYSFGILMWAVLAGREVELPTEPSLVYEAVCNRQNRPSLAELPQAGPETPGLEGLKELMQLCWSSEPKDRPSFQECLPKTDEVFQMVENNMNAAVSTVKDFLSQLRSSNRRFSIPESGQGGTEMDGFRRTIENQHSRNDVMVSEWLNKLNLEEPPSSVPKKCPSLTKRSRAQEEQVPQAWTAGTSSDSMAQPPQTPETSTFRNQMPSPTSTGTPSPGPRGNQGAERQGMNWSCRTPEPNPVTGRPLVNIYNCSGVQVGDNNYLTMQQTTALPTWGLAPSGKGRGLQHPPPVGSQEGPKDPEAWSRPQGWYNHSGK
The target of test [4] is T3, Tyrosine-protein kinase Tec (Homo sapiens, UniProt P42680).
T3 sequence (P42680 whole entry): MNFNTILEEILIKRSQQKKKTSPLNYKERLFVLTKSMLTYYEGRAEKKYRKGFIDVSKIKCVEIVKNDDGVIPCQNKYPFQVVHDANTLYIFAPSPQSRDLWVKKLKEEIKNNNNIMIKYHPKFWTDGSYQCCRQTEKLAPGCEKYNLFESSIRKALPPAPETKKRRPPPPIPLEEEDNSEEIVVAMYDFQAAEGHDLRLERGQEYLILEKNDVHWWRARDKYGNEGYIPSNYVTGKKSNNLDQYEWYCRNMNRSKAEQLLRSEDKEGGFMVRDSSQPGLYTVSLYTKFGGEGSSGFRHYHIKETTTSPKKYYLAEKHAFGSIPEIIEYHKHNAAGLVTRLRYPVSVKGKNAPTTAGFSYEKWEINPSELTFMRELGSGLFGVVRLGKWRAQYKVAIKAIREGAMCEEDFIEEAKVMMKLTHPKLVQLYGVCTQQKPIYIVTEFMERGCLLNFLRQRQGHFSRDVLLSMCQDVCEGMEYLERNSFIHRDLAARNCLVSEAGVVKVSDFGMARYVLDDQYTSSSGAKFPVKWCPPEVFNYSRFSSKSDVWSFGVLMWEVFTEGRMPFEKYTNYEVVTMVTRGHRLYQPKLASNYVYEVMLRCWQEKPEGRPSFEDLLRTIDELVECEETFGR

For test [5], the target named is Dual specificity testis-specific protein kinase 1 (Homo sapiens, UniProt Q15569).
Chain of Dual specificity testis-specific protein kinase 1 (Q15569 whole entry): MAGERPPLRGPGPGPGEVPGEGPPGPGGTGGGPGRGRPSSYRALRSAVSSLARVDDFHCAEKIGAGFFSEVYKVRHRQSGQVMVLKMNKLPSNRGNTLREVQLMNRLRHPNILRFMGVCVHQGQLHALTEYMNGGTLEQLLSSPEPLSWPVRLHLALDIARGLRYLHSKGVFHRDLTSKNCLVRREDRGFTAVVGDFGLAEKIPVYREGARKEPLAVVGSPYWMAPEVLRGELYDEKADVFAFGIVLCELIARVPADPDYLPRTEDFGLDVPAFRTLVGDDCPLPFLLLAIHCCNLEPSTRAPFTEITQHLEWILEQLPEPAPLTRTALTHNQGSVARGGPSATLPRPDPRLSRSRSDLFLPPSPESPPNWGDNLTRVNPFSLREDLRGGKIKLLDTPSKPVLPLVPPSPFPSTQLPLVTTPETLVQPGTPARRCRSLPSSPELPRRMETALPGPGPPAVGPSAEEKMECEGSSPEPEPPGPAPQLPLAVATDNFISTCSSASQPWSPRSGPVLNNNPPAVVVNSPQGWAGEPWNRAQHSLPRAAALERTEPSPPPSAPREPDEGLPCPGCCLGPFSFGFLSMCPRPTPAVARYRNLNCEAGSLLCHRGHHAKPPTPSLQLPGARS
Test [6] has as its target T4, Tyrosine--tRNA ligase, cytoplasmic (Homo sapiens, UniProt P54577).
T4 sequence (P54577 whole entry): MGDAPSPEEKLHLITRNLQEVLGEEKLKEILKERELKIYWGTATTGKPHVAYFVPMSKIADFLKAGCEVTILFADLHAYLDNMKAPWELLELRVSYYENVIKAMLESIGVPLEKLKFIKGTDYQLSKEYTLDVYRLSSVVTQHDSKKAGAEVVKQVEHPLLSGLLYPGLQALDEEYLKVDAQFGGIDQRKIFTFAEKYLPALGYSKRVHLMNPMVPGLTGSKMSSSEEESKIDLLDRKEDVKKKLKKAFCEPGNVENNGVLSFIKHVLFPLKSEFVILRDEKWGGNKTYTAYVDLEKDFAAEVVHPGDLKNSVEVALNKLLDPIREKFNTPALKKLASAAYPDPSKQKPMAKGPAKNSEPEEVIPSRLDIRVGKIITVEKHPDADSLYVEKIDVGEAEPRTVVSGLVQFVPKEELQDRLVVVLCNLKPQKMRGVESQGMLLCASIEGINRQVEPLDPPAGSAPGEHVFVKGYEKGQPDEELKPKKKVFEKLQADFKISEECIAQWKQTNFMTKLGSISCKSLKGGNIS
Also: in the data inactive means no Kd found up to 30 µM.

For `Cc1nc2cc(-c3nn(C(C)C)c4ncnc(N)c34)ccc2o1`, the Kd in test [1] is > 30 µM (inactive); in test [2] it was > 30 µM (inactive); in test [3] it was 2.38 µM (active); in test [4], > 30 µM (inactive); in test [5], > 30 µM (inactive); in test [6], > 30 µM (inactive).

`COc1cc(Nc2ncc3c(n2)-c2ccc(Cl)cc2C(c2c(F)cccc2OC)=NC3)ccc1C(=O)O` [ALISERTIB]: the Kd in test [1], in test [2], in test [3], in test [4], in test [5] and in test [6] was > 30 µM (inactive) each time.

Consider `Cc1nc(NC(=O)N2CCC[C@H]2C(N)=O)sc1-c1ccnc(C(C)(C)C(F)(F)F)c1` [ALPELISIB], for which the Kd in test [1], in test [2], in test [3], in test [4], in test [5] and in test [6] was > 30 µM (inactive) throughout.

For `Cc1csc(-c2nnc(Nc3ccc(Oc4ncccc4-c4ccnc(N)n4)cc3)c3ccccc23)c1` [AMG-900], the dissociation constant Kd was 2.75 µM (active) in test [1]; > 30 µM (inactive) in test [2]; > 30 µM (inactive) in test [3]; > 30 µM (inactive) in test [4]; > 30 µM (inactive) in test [5]; > 30 µM (inactive) in test [6].

Regarding `C=CC(=O)Nc1cc2c(Nc3ccc(F)c(Cl)c3)ncnc2cc1C#CC(C)(C)N1CCN(C)CC1` [AV-412 FREE BASE], the Kd was > 30 µM (inactive) in test [1]; > 30 µM (inactive) in test [2]; > 30 µM (inactive) in test [3]; 0.422 µM (active) in test [4]; > 30 µM (inactive) in test [5]; > 30 µM (inactive) in test [6].

Consider `COc1cc([C@@H]2c3cc4c(cc3[C@H](O)[C@H]3COC(=O)[C@@H]23)OCO4)cc(OC)c1OC` [AXL-1717], for which the Kd in test [1], in test [2], in test [3], in test [4], in test [5] and in test [6] was > 30 µM (inactive) throughout.

With `NC(=O)Nc1cc(-c2cccc(F)c2)sc1C(=O)N[C@H]1CCCNC1` [AZD-7762], the Kd was > 30 µM (inactive) in test [1]; 0.363 µM (active) in test [2]; > 30 µM (inactive) in test [3]; 2.61 µM (active) in test [4]; > 30 µM (inactive) in test [5]; > 30 µM (inactive) in test [6].

Take `Cn1cnc2c(F)c(Nc3ccc(Br)cc3F)c(C(=O)NOCCO)cc21` [BINIMETINIB]: the Kd in test [1], in test [2], in test [3], in test [4], in test [5] and in test [6] was > 30 µM (inactive) each time.

Take `CCn1c(C(=O)N(C2CC2)C2CC2)cc2c3c(ncn3C)c(Nc3cc(C)n(C)n3)nc21` [BMS-911543]: the Kd in test [1], in test [2], in test [3], in test [4], in test [5] and in test [6] was > 30 µM (inactive) each time.

On to `COc1cc2ncnc(Oc3cccc(NC(=O)Nc4cc(C(C)(C)C(F)(F)F)on4)c3)c2cc1OC` [CEP-32496], for which the Kd in test [1], in test [2], in test [4], in test [5] and in test [6] was > 30 µM (inactive) throughout. This molecule gave a pKd in test [3] of 6.61.

Take `Cc1cc(Nc2ncc(Cl)c(Nc3ccccc3S(=O)(=O)C(C)C)n2)c(OC(C)C)cc1C1CCNCC1` [CERITINIB]: the Kd in test [1], in test [2], in test [3], in test [4], in test [5] and in test [6] was > 30 µM (inactive) throughout.

For the molecule `COc1c(OCCCN2CCOCC2)ccc2c1N=C(NC(=O)c1cnc(N)nc1)N1CCN=C21` [COPANLISIB], the Kd in test [1], in test [2], in test [3], in test [4], in test [5] and in test [6] was > 30 µM (inactive) in each case.

Take `COCC(=O)NC/C=C/c1ccc2ncnc(Nc3ccc(Oc4ccc(C)nc4)c(C)c3)c2c1` [CP-724714]: the Kd in test [1], in test [2], in test [3], in test [4], in test [5] and in test [6] was > 30 µM (inactive) in each case.

As for `C#Cc1cccc(Nc2ncnc3cc(OC)c(OCCCCCCC(=O)NO)cc23)c1` [CUDC-101], the Kd in test [1], in test [2], in test [3], in test [4], in test [5] and in test [6] was > 30 µM (inactive) throughout.

Turning to `Cc1nc2cc(-n3ncc(C(=O)c4cc5ccccc5[nH]4)c3N)ccc2[nH]1` [FGFR INHIBITOR DEBIO 1347], the Kd in test [1], in test [2], in test [3], in test [4], in test [5] and in test [6] was > 30 µM (inactive) throughout.

Consider `O=C(Nc1nc2cccc(-c3ccc(CN4CCS(=O)(=O)CC4)cc3)n2n1)C1CC1` [FILGOTINIB], for which the Kd in test [1], in test [2], in test [3], in test [4], in test [5] and in test [6] was > 30 µM (inactive) each time.

For orientation: Kd means the equilibrium constant for the complex coming apart. A word on the pKd: it is the Kd on a negative log10 scale, so that one unit is a factor of ten. The low end stands for a large Kd, the high end for a small Kd.
